PubChem BioAssay (NCI)
Several values for one entry are separate records, joined by “and”; a condition that tells them apart may be missing. Equal values may be shown once.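 Method: 48-hour compound exposure of cells in 96-well plates, five concentrations, linear interpolation of endpoints. The concentration for 50% growth inhibition is given as GI50. The concentration for full growth arrest is given as TGI.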 Activity calls are given as the source filed them. Rule as the data show it: active = GI50 below about 0.43 µM; inactive = the rest.

Experiments:
Test in all cases: DTP human tumour cell line panel, 48 h
DLD-1 colon = tested on: DLD-1 colon
HOP-18 NSCLC = tested on: HOP-18 NSCLC
M19-MEL melanoma = tested on: M19-MEL melanoma
XF 498 CNS = tested on: XF 498 CNS
HS 578T breast = tested on: HS 578T breast
MDA-MB-231 breast = tested on: MDA-MB-231 breast
MDA-N = tested on: MDA-N
PC-3 prostate = tested on: PC-3 prostate
T-47D breast = tested on: T-47D breast

**Q.** Which TGI (DLD-1 colon) does the source give for COC(=O)C1Cc2c([nH]c3ccccc23)[C@H](CC(C)C)N1 (some centres undefined) here?
**A.** The TGI was over 100 µM.

**Q.** And the TGI (HOP-18 NSCLC)?
**A.** Its TGI is over 100 µM.

**Q.** And the TGI (M19-MEL melanoma)?
**A.** The TGI was over 100 µM.

**Q.** And the TGI (XF 498 CNS)?
**A.** Its TGI is over 100 µM.

**Q.** What does the source list for Cc1cc(O)c2c(c1)C[C@@H](O)C1=C2C(=O)c2c(O)ccc(OC3CC(O)C(OC4CC(OC5CCC(OC6CC(O)C(OC7CC(OC8CCC(O)C(C)O8)C(O)C(C)O7)C(C)O6)C(C)O5)C(O)C(C)O4)C(C)O3)c2C1=O (some centres undefined)?
**A.** TGI (DLD-1 colon): 0.0426 µM; TGI (HOP-18 NSCLC): 0.188 µM; GI50 (HS 578T breast): 1.59 µM; TGI (M19-MEL melanoma): 0.0197 µM; GI50 (MDA-MB-231 breast): 0.433 µM and 0.251 µM; TGI (MDA-MB-231 breast): 0.259 µM and 1.49 µM and 0.549 µM; GI50 (MDA-N): 0.207 µM and 0.24 µM; TGI (MDA-N): 0.211 µM and 0.387 µM and 0.562 µM; GI50 (PC-3 prostate): 0.4 µM and 0.849 µM; TGI (PC-3 prostate): 0.56 µM and 1.49 µM and 3.5 µM; GI50 (T-47D breast): 0.626 µM; TGI (T-47D breast): 0.352 µM and 2.54 µM; TGI (XF 498 CNS): 0.0517 µM

**Q.** With [N-]=[N+]=Nc1ccc(S(=O)(=O)Oc2cc(OS(=O)(=O)c3ccc(N=[N+]=[N-])cc3)cc(OS(=O)(=O)c3ccc(N=[N+]=[N-])cc3)c2)cc1 as the compound, how does the TGI (DLD-1 colon) read?
**A.** Its TGI is over 100 µM.

**Q.** And the TGI (HOP-18 NSCLC)?
**A.** Its TGI is over 100 µM.

**Q.** And the TGI (M19-MEL melanoma)?
**A.** Its TGI is over 100 µM.

**Q.** And the TGI (XF 498 CNS)?
**A.** Its TGI is over 100 µM.

**Q.** How did the GI50 (DLD-1 colon) turn out when c1ccc([CH2][Sn]([CH2]c2ccccc2)([S]c2cccc3cccnc23)[S]c2cccc3cccnc23)cc1 was run?
**A.** The GI50 was 0.282 µM.

**Q.** And the TGI (DLD-1 colon)?
**A.** The TGI was 0.886 µM.

**Q.** What about the GI50 (HOP-18 NSCLC) of the same compound?
**A.** Its GI50 is 0.246 µM.

**Q.** What about the TGI (HOP-18 NSCLC) of the same compound?
**A.** Its TGI is 0.84 µM.

**Q.** What about the GI50 (M19-MEL melanoma) of the same compound?
**A.** The GI50 was 0.276 µM.

**Q.** And the TGI (M19-MEL melanoma)?
**A.** The TGI was 0.739 µM.

**Q.** And the GI50 (XF 498 CNS)?
**A.** Its GI50 is 0.109 µM.

**Q.** And the TGI (XF 498 CNS)?
**A.** The TGI was 0.367 µM.

**Q.** What does the source list for CCCCN(CCCC)C(=Nc1ccccc1)N(CCCC)CCCC?
**A.** TGI (DLD-1 colon): 43.6 µM; TGI (HOP-18 NSCLC): 6.39 µM; TGI (M19-MEL melanoma): 22.4 µM; TGI (XF 498 CNS): 5.95 µM

**Q.** For O=C(c1ccccc1)c1nnn(Cc2cccc(Cl)c2)c1C(=O)c1ccccc1, which TGI (DLD-1 colon) is on record?
**A.** The TGI was over 100 µM.

**Q.** And the TGI (HOP-18 NSCLC)?
**A.** The TGI was over 100 µM.

**Q.** What about the TGI (M19-MEL melanoma) of the same compound?
**A.** Its TGI is over 100 µM.

**Q.** What about the TGI (XF 498 CNS) of the same compound?
**A.** Its TGI is over 100 µM.

**Q.** COc1ccc(C(=O)O/N=C2\CCCC\C2=C/c2ccccc2)cc1 was tested. Which TGI (DLD-1 colon) did it give?
**A.** The TGI was over 100 µM.

**Q.** And the TGI (HOP-18 NSCLC)?
**A.** The TGI was over 100 µM.

**Q.** What about the TGI (M19-MEL melanoma) of the same compound?
**A.** Its TGI is over 100 µM.

**Q.** And the TGI (XF 498 CNS)?
**A.** Its TGI is 89.2 µM.

**Q.** What does the source list for C=C1C(=O)OC2C1C(OC(=O)/C(=C/C)COC(C)=O)CC1(CO1)C1C(OC(=O)/C(=C/C)CO)C=C(C)C21 (centres undefined)?
**A.** TGI (DLD-1 colon): 4.14 µM; TGI (HOP-18 NSCLC): 2.74 µM; TGI (M19-MEL melanoma): 4.3 µM; TGI (XF 498 CNS): 3.78 µM

**Q.** What does the source list for COc1c(O)c2ccccc2c2cc(O)ccc12?
**A.** TGI (DLD-1 colon): 25.5 µM; TGI (HOP-18 NSCLC): 3.72 µM; TGI (HS 578T breast): > 58.9 µM; TGI (M19-MEL melanoma): 3.59 µM; TGI (MDA-MB-231 breast): 19.4 µM; TGI (MDA-N): 2.57 µM; TGI (PC-3 prostate): 60.1 µM; TGI (T-47D breast): 38.4 µM; TGI (XF 498 CNS): 5.13 µM

**Q.** Which results are given for CCC12C=CCN3CC[C@]4(C(=C(C(=O)OC)[C@@H]1Nc1ncnc5c1ncn5C1OC(COC(C)=O)C(OC(C)=O)C1OC(C)=O)Nc1ccccc14)C32 (some centres undefined)?
**A.** TGI (DLD-1 colon): 6.22 µM; TGI (HOP-18 NSCLC): 19.5 µM; TGI (M19-MEL melanoma): 5.93 µM; TGI (XF 498 CNS): 7.44 µM

**Q.** Which results are given for COC1OC(OC)C2C(c3c(C)cc(C)cc3C)=NOC12 (centres undefined)?
**A.** TGI (DLD-1 colon): > 100 µM; TGI (HOP-18 NSCLC): > 100 µM; TGI (M19-MEL melanoma): > 100 µM; TGI (XF 498 CNS): > 100 µM

**Q.** Which results are given for O=C(Nc1ccc(Cl)cc1)NS(=O)(=O)c1ccc2c(c1)CCC2?
**A.** GI50 (DLD-1 colon): 19.5 µg/mL; TGI (DLD-1 colon): > 100 µM and 41.1 µg/mL; TGI (HOP-18 NSCLC): > 100 µM; outcome (HOP-18 NSCLC): inactive; TGI (HS 578T breast): 13.1 µM; GI50 (M19-MEL melanoma): 29.8 µg/mL; TGI (M19-MEL melanoma): > 100 µM and 58.5 µg/mL; TGI (MDA-N): > 100 µM; TGI (PC-3 prostate): 47.3 µM; TGI (T-47D breast): 74.6 µM; TGI (XF 498 CNS): > 100 µM; outcome (XF 498 CNS): inactive

**Q.** Which results are given for CCCOC(=O)C1CCC(=O)N1C(=O)C(Cl)Cl (centres undefined)?
**A.** TGI (DLD-1 colon): > 100 µM; TGI (HOP-18 NSCLC): > 100 µM; TGI (M19-MEL melanoma): > 100 µM; TGI (XF 498 CNS): > 100 µM

**Q.** Which results are given for CC(C)NC(=O)OCc1nnn2c1C(OC(=O)NC(C)C)CC2 (centres undefined)?
**A.** TGI (DLD-1 colon): > 100 µM; TGI (HOP-18 NSCLC): > 100 µM; TGI (M19-MEL melanoma): > 100 µM; TGI (XF 498 CNS): > 100 µM

**Q.** COC(=O)C1=C(O)C(O)=C(C(=O)OC)CC1 was tested. Which TGI (DLD-1 colon) did it give?
**A.** Its TGI is over 100 µM.

**Q.** And the TGI (HOP-18 NSCLC)?
**A.** Its TGI is over 100 µM.

**Q.** And the TGI (M19-MEL melanoma)?
**A.** Its TGI is over 100 µM.

**Q.** What about the TGI (XF 498 CNS) of the same compound?
**A.** Its TGI is over 100 µM.

**Q.** How did the TGI (DLD-1 colon) turn out when CC(=O)OC1COC(N2C(=O)C(=O)c3c(C)cc(Cl)nc32)C(OC(C)=O)C1OC(C)=O (centres undefined) was run?
**A.** Its TGI is over 100 µM.

**Q.** And the TGI (HOP-18 NSCLC)?
**A.** Its TGI is over 100 µM.

**Q.** What about the TGI (M19-MEL melanoma) of the same compound?
**A.** Its TGI is over 100 µM.

**Q.** What about the TGI (XF 498 CNS) of the same compound?
**A.** Its TGI is over 100 µM.

**Q.** Which TGI (HOP-18 NSCLC) does the source give for COc1ccc(NC(=O)CC/C(CC(=O)c2ccco2)=N/Nc2ccc([N+](=O)[O-])cc2[N+](=O)[O-])cc1 here?
**A.** The TGI was over 100 µM.

**Q.** And the TGI (M19-MEL melanoma)?
**A.** The TGI was over 100 µM.

**Q.** What about the TGI (XF 498 CNS) of the same compound?
**A.** The TGI was 81.4 µM.

**Q.** What does the source list for COc1ccc(CN(O)C2C(CO)OC(n3cc(I)c(=O)[nH]c3=O)C2O)cc1 (centres undefined)?
**A.** TGI (DLD-1 colon): > 100 µM; TGI (HOP-18 NSCLC): > 100 µM; TGI (M19-MEL melanoma): > 100 µM; TGI (XF 498 CNS): > 100 µM

**Q.** Which TGI (DLD-1 colon) does the source give for COC(=O)C1=Cc2cc3c(cc2[C@H](c2ccc4c(c2)OCO4)C1C(=O)OC)OCO3 (some centres undefined) here?
**A.** The TGI was over 100 µM.

**Q.** And the TGI (HOP-18 NSCLC)?
**A.** The TGI was over 100 µM.

**Q.** And the TGI (M19-MEL melanoma)?
**A.** The TGI was over 100 µM.

**Q.** And the TGI (XF 498 CNS)?
**A.** The TGI was over 100 µM.

**Q.** For CCS[C@H]1NC(=O)C1[C@H](C)O[Si](C)(C)C(C)(C)C (some centres undefined), which TGI (DLD-1 colon) is on record?
**A.** The TGI was over 100 µM.

**Q.** And the TGI (HOP-18 NSCLC)?
**A.** Its TGI is over 100 µM.

**Q.** And the TGI (M19-MEL melanoma)?
**A.** The TGI was over 100 µM.

**Q.** And the TGI (XF 498 CNS)?
**A.** Its TGI is over 100 µM.

**Q.** With CCN(CC)CCN(C)CC(C)(C)C(=O)/C=C/c1ccccc1 as the compound, how does the TGI (DLD-1 colon) read?
**A.** The TGI was 22.2 µM.

**Q.** What about the TGI (HOP-18 NSCLC) of the same compound?
**A.** Its TGI is 30.6 µM.

**Q.** And the TGI (M19-MEL melanoma)?
**A.** The TGI was 24.3 µM.

**Q.** What about the TGI (XF 498 CNS) of the same compound?
**A.** The TGI was 24.8 µM.
